Laboratory results reported in US20170191032A1, “IDENTIFICATION AND ISOLATION OF NEURAL STEM CELLS AND NEUROSPHERE INITIATING CELLS” (The Board of Regents of the University of Texas System, priority 2014, published 2017).

Assays:
SVZ cells = test: TMZ regeneration assay: total and dividing (BrdU) SVZ cells; format: in vivo, mouse
Description: (§1) All data represent mean ±s.d.

NICs = test: TMZ regeneration assay: neurosphere-initiating cells (NICs); format: in vivo, mouse
Description: as §1
(§2) The cell suspension was then filtered through a 45-micron mesh, counted on a hemocytometer, and added to culture or processed for flow cytometry. […] For adherent colony formation, Tg(Ubc-GFP) SVZ cells were co-cultured with 80-90% confluent nontransgenic neonatal SVZ-derived astrocytes isolated and passaged twice prior to the experiment. GFP fluorescence was used to assess colony formation after 12-20 days in culture.

[1] = Body mass after TMZ treatment; format: in vivo, mouse; conditions: three days after TMZ, 100 mg/kg/day i.p. for 3 consecutive days
GEPCOT cells [2] = test: TMZ regeneration assay: GEPCOT cells per SVZ by flow cytometry; conditions: for number of unlabeled GEPCOTs per SVZ: Ascl1CreERT2 reporter mice, tamoxifen then TMZ
Description: TMZ regeneration assay. TMZ (temozolomide; Sigma T2577) was dissolved in 25% DMSO/75% 0.9% saline solution at 10 mg/ml by heating briefly to 90-100° C., then shaking and rapidly cooling. Mice were injected at 100 mg/kg/day for three consecutive days then allowed to recover for 3-90 days before analysis. Mice with enlarged spleen or thymus (sometimes present at 90 days after TMZ treatment) were excluded from analysis.
To stain SVZ cells with the combination of markers used to isolate GEPCOT or pre-GEPCOT cells, dissociated SVZ cells were centrifuged (220 g, 4 min, 4° C.) and resuspended in 100 μl staining medium per brain. Then the following antibodies were added: BV421 anti-Ter119 (Biolegend 116233, 1/100), BV421 anti-CD45 (Biolegend 103133, 1/100), APC-eFluor 780 anti-CD24 (eBioscience 47-0242-82, 1/200), 5A5 ascites (anti-PSA-NCAM; Developmental Studies Hybridoma Bank, 1/100), O4 ascites (1/200), anti-PlexinB2 (eBioscience 14-5665-82, 1/100), biotinylated anti-EGFR (R&D Systems BAF1280, 1/200), anti-Glast (Miltenyi Biotec 130-095-822, 1/10), and DAPI (50 μg/ml, 1/100). After adding antibodies, the cells were incubated on ice for 45 minutes, then washed with 2.5 ml fresh staining medium and pelleted (220 g for 4 minutes at 4° C.) and resuspended in secondary antibodies. Typically, the inventors used the following combination: APC anti-mouse IgG2a (Jackson Immunoresearch 115-135-206,1/200), PE anti-hamster IgG (Jackson Immunoresearch 127-115-160, 1/200), PE-Cy7 anti-mouse IgM (eBioscience 25-5790-82, 1/100), BV605-Streptavidin (BD Biosciences 563260, 1/200). However, when analyzing mice expressing tdTomato, the inventors used the following alternative secondary antibodies: PerCP-eFluor 710 anti-mouse IgG (eBioscience 46-4010-82, 1/100), APC anti-hamster IgG (Jackson Immunoresearch 127-135-160, 1/200), PE-Cy7 anti-mouse IgM (eBioscience 25-5790-82, 1/100), and BV605-Streptavidin (BD Biosciences 563260, 1/200). Cells were stained with secondary antibodies on ice for 45 minutes, then washed and pelleted as above, and analyzed on the FACSAria in a volume of 200 μl per brain.

GEPCOT cells [3] = conditions: 3.0 mM EDTA in staining medium (slight excess over 2.7 mM divalent cations)
Description: In the inventors' experiments, the staining medium the inventors employed contained 3.0 mM EDTA, enough to neutralize 2.7 mM of divalent cations in the staining medium (with a small surplus). […] The inventors pre-diluted 0.5M EDTA (made from Na2H2EDTA, pH 8.0) to 77.7 mM (309 mOsm) before adding it to the staining medium.
SVZ cell preparation. SVZs from adult (8-60 week old) mice were dissected as described (Mirzadeh et al., 2010). SVZs were minced and digested with 300 μl of trypsin solution (Ca and Mg-free HBSS, 10 mM HEPES, 0.5 mM EDTA, 0.25 mg/mL trypsin (EMD Millipore), 10 μg/mL DNase I (Roche), pH 7.6) at 37° C. for 20 minutes. Digestion was quenched with three volumes of staining medium (440 ml Leibovitz L-15 medium, 50 ml water, 5 ml 1M HEPES pH 7.3-7.4, 5 ml 100× Pen-Strep, 20 ml 77.7 mM EDTA pH 8.0 [prepared from Na2H2EDTA], 1 g bovine serum albumin [Sigma A7030]) containing 100 μg/ml trypsin inhibitor (Sigma T6522) and 10 μg/ml DNase I (Roche).

adult SVZ cells = test: Neurosphere formation (clonogenesis) of adult SVZ cells with culture additives; format: cell-based, mouse
Description: Rock inhibitor (Y-27632) and IGF1 increase clonogenesis after sorting. The process of being sorted has a negative effect on neurosphere formation from adult SVZ cells: at the beginning of their experiments the inventors observed a 3-fold loss of activity in sorted live SVZ cells compared to crude unsorted cells. […] The inventors wondered how to sort gently to overcome the fragility of adult SVZ cells.
(§3) The mechanisms underlying these effects are unclear but may involve promotion of cell survival after sorting or repression of BMP signaling (Hsieh et al., 2004). When using both these culture additives, there was little difference between sorted live SVZ cells and an equal number of cells added to culture by pipette in terms of the numbers of neurospheres they made.
After adding 10% CEE to the culture medium, sorted cell-derived primary neurospheres were indistinguishable in size and number from neurospheres cultured from cells pipetted into culture.
as §2

neonatal SVZ cells = test: Neurosphere formation of neonatal SVZ cells with culture additive; format: cell-based, mouse; conditions: 10 μM
Description: as §3

[4] = three days after TMZ (100 mg/kg/day i.p., 3 days)

Cn1nnc2c(C(N)=O)ncn2c1=O [TMZ, temozolomide]
number of dividing SVZ cells, recovery as % of normal (SVZ cells; 90 days after TMZ treatment): 50 % of normal
reduction in the number of dividing SVZ cells, based on BrdU incorporation (SVZ cells; [4]): 80%
reduction in the total number of cells per SVZ (SVZ cells; [4]): 23%
NICs recovered, % of normal levels (NICs; 16 days after TMZ treatment): 20 % of normal
NICs recovered, % of normal (NICs; 90 days after TMZ): 55 % of normal
NICs remaining relative to saline-treated control mice (NICs; three days after TMZ): 0.7%
loss of body mass as compared to before TMZ treatment [1]: less than 3%
GEPCOTs recovered, % of normal levels (GEPCOT cells [2]; 16 days after TMZ treatment): 32 % of normal
GEPCOTs recovered, % of normal levels (GEPCOT cells [2]; 90 days after TMZ treatment): 55 % of normal
number of unlabeled GEPCOTs per SVZ (GEPCOT cells [2]; 3 days after TMZ): 120±50
number of unlabeled GEPCOTs per SVZ (GEPCOT cells [2]; 35 days after TMZ): 640±210
GEPCOTs remaining relative to saline-treated control mice (GEPCOT cells [2]; three days after TMZ treatment): 10%

O=C(O)CN(CCN(CC(=O)O)CC(=O)O)CC(=O)O [EDTA]
effect on the yield of GEPCOT cells (GEPCOT cells [3]): 2-3 fold

IGF1: IGF-1 growth factor (R&D Systems 291-G1) added to culture medium
clonogenesis after sorting (adult SVZ cells; 20 ng/ml in culture medium, in addition to Y-27632): further improved clonogenesis after sorting

Y-27632 hydrochloride
increase in neurosphere formation (adult SVZ cells; 10 μM in culture medium, adult cells after sorting): approximately two-fold
effect on neurosphere formation (adult SVZ cells; 10 μM, adult SVZ cells pipetted into the culture medium): did not have any effect
effect on neurosphere formation (neonatal SVZ cells; crude neonatal SVZ cells): did not have any effect
effect on neurosphere formation (neonatal SVZ cells; sorted neonatal SVZ cells): did not have any effect
